Measured values as given in patent US6528655B1, “Aromatic derivatives with HIV integrase inhibitory properties” (Pharmacor, Inc., priority 2000, dated 2003).

The compounds below were run against HIV-1 integrase (Human immunodeficiency virus type 1 group M subtype B, UniProt P04585) (assay: HIV-1 integrase inhibition assay (radiolabeled duplex substrate corresponding to the U5 end of the HIV LTR)). Details: not given.
Type: biochemical
Protocol: For the purpose of Table 1 to 4, the HIV-1 integrase inhibition assay was carried out following a known procedure (Burke, Jr. T. R. et al., J. Med. Chem. 38, 4171-4178 (1995)). A suitable radiolabeled duplex substrate corresponding to the U5 end of the HIV LTR was used.
For the purposes of Table 1 to 4 the HIV-1 integrase inhibition assay was based on a known procedure (Hazuda, D. J. et al., Nucleic Acids Res. 22 1121-1122 (1994)).
In the case of `COc1ccc(OC)c(NC(=O)[C@H](CCC(=O)NC(c2ccccc2)(c2ccccc2)c2ccccc2)NC(=O)c2cc3ccccc3[nH]2)c1` [Example 84, N-[Nα-(Indole-2-carbonyl)-Nδ-trityl-L-glutaminyl]-2,5-dimethoxyaniline], the IC50 is reported as 4.1 µM.
`COc1ccc(OC)c(NC(=O)[C@H](CCC(=O)NC(c2ccccc2)(c2ccccc2)c2ccccc2)NC(=O)c2cc(O)c3cccc(O)c3n2)c1` [Example 85, N-[Nα-(4,8-Dihydroxyquinoline-2-carbonyl)-Nδ-trityl-L-glutaminyl]-2,5-dimethoxyaniline] showed an IC50 of 2.6 µM.
For `O=C(/C=C/c1c[nH]c2ccccc12)N[C@@H](Cc1cn(C(c2ccccc2)(c2ccccc2)c2ccccc2)cn1)C(=O)NCCc1ccc(O)c(O)c1` [Example 86, N-[Nα-(3-(3′-Indole)acryloyl)-Nτ-trityl-L-histidinyl]dopamine], the IC50 was 2 µM.
For `CC(C)(C)OC[C@H](NC(=O)Cc1cccs1)C(=O)NCCc1ccc(O)c(O)c1` [Example 87], the IC50 was over 10 µM.
Work on `COc1ccc(OC)c(NC(=O)[C@H](CCC(=O)NC(c2ccccc2)(c2ccccc2)c2ccccc2)NC(=O)c2ccc[nH]2)c1` [Example 88, N-[Nα-(Pyrrole-2-carbonyl)-Nδ-trityl-L-glutaminyl]-2,5-dimethoxyaniline] yielded an IC50 of over 10 µM.
With `Cc1ccc(C(NC(=O)CC[C@H](NC(=O)/C=C/c2ccc(O)c(O)c2)C(=O)Nc2nccs2)(c2ccccc2)c2ccccc2)cc1` [Example 90, N-(Nα-Caffeoyl-Nδ-methyltrityl-L-glutaminyl)thiazole-2-amine] the IC50 was 0.834 µM.
`COc1ccc(OC)c(NC(=O)[C@H](CCC(N)=O)NC(=O)c2ccc[nH]2)c1` [Example 91, N-(Nα-(Pyrrole-2-carbonyl)-L-glutaminyl]-2,5dimethoxyaniline] showed an IC50 of over 10 µM.
In the case of `O=C(O)CC[C@H](NC(=O)c1cc2ccccc2n1Cc1ccc(F)cc1)C(=O)NCc1ccccc1` [Example 94, N-[Nα-(N′-(4-Fluorobenzyl)indole-2-carbonyl)-L-glutamyl]benzylamine], the IC50 is reported as 9.25 µM.
`CC(C)(C)OC[C@H](NC(=O)c1cc2ccccc2n1Cc1ccc(F)cc1)C(=O)NCCc1ccc(O)c(O)c1` [Example 95, N-[Nα-(N′-(4-Fluorobenzyl)indole-2-carbonyl)-O-tert-butyl-L-seryl]dopamine] gave an IC50 of 7 µM.
In the case of `O=C(N[C@@H](CO)C(=O)NCCc1ccc(O)c(O)c1)c1cc2ccccc2n1Cc1ccc(F)cc1` [Example 96, N-[Nα-(N′-(4-Fluorobenzyl)indole-2-carbonyl)-L-seryl]dopamine], the IC50 is reported as over 10 µM.
In the case of `CC(C)(C)OC[C@H](NC(=O)c1ccc(OCc2ccc(F)cc2)c(OCc2ccc(F)cc2)c1)C(=O)NCCc1ccc(O)c(O)c1` [Example 97, N-[Nα-(3,4-di-(4-Fluorobenzyloxy)benzoyl)-O-tert-butyl-L-seryl]dopamine], the IC50 is reported as 2.9 µM.
In the case of `CC(C)(C)OC(=O)CC[C@H](NC(=O)c1ccc(OCc2ccc(F)cc2)c(OCc2ccc(F)cc2)c1)C(=O)NCc1ccccc1` [Example 99, N-[Nα-(3,4-di-(4-Fluorobenzyloxy)benzoyl)-Oδ-tert-butyl-L-glutamyl]benzylamine], the IC50 is reported as over 10 µM.
For `CC(C)(C)OC(=O)CC[C@H](NC(=O)c1cccn1Cc1ccc(F)cc1)C(=O)NCCc1cccs1` [Example 101, N-[Nα-(N′-(4-Fluorobenzyl)pyrrole-2-carbonyl)-Oδ-tert-butyl-L-glutamyl]-2-(2′-thiophenyl)ethylamine], the IC50 was over 10 µM.
Compound `CC(C)(C)OC(=O)CC[C@H](NC(=O)c1cc2ccccc2n1Cc1ccc(F)cc1)C(=O)NCCc1cccs1` [Example 102, N-[Nα-(N′-(4-Fluorobenzyl)indole-2-carbonyl)-Oδ-tert-butyl-L-glutamyl]-2-(2′-thiophenyl)ethylamine] has an IC50 of over 10 µM.
`O=C(O)CC[C@H](NC(=O)c1cccn1Cc1ccc(F)cc1)C(=O)NCCc1cccs1` [Example 103, N-[Nα-(N′-(4-Fluorobenzyl)pyrrole-2-carbonyl)-L-glutamyl]-2-(2′-thiophenyl)ethylamine] was tested, and the IC50 was over 10 µM.
Compound `O=C(O)CC[C@H](NC(=O)c1cc2ccccc2n1Cc1ccc(F)cc1)C(=O)NCCc1cccs1` [Example 104, N-[Nα-(N′-(4-Fluorobenzyl)indole-2-carbonyl)-L-glutamyl]-2-(2′-thiophenyl)ethylamine] has an IC50 of over 10 µM.
`CC(C)(C)OC(=O)CC[C@H](NC(=O)c1cc(O)c2cccc(O)c2n1)C(=O)NCCc1cccs1` [Example 105, N-[Nα-(4,8-Dihydroxyquinoline-2-carbonyl)-Oδ-tert-butyl-L-glutamyl]-2-(2′-thiophenyl)ethylamine] showed an IC50 of over 10 µM.
With `O=C(O)CC[C@H](NC(=O)c1cc(O)c2cccc(O)c2n1)C(=O)NCCc1cccs1` [Example 106, N-[Nα-(4,8-Dihydroxyquinoline-2-carbonyl)-L-glutamyl]-2-(2′-thiophenyl)ethylamine] the IC50 was over 10 µM.
Compound `CC(C)(C)OC(=O)CC[C@H](NC(=O)c1cc(F)ccc1O)C(=O)NCCc1cccs1` [Example 107, N-[Nα-(5-Fluoro-2-hydroxybenzoyl)-Oδ-tert-butyl-L-glutamyl]-2-(2′-thiophenyl)ethylamine] has an IC50 of over 10 µM.
Compound `O=C(O)CC[C@H](NC(=O)c1cc(F)ccc1O)C(=O)NCCc1cccs1` [Example 108, N-[Nα-(5-Fluoro-2-hydroxybenzoyl)-L-glutamyl]-2-(2′-thiophenyl)ethylamine] has an IC50 of over 10 µM.
For `COc1ccc(NC(=O)[C@H](CCC(=O)NC(c2ccccc2)(c2ccccc2)c2ccccc2)NC(=O)c2ccc(OCc3ccc(F)cc3)c(OCc3ccc(F)cc3)c2)cc1O` [Example 111, N-[Nα-(3,4-di-(4-Fluorobenzyloxy)benzoyl)-Nδ-trityl-L-glutaminyl]-3-hydroxy-4-methoxyaniline], the IC50 was 6.1 µM.
`COc1ccc(NC(=O)[C@H](CCC(=O)NC(c2ccccc2)(c2ccccc2)c2ccccc2)NC(=O)/C=C/c2ccc(OCc3ccc(F)cc3)c(OCc3ccc(F)cc3)c2)cc1O` [Example 112, N-[Nα-(3,4-di-(4-Fluorobenzyloxy)caffeoyl)-Nδ-trityl-L-glutaminyl]-3-hydroxy-4-methoxyaniline] showed an IC50 of 2 µM.
With `COc1ccc(NC(=O)[C@H](CCC(=O)NC(c2ccccc2)(c2ccccc2)c2ccccc2)NC(=O)c2cc3cc(F)ccc3[nH]2)cc1O` [Example 113, N-[Nα-(5-Fluoroindole-2-carbonyl)-Nδ-trityl-L-glutaminyl]-3-hydroxy-4-methoxyaniline] the IC50 was 6.5 µM.

Same assay, conditions: Table 2, compounds of formula III′; read-out: IC50
Compound “Nα,Nε-di-(3,5-Dihydroxynaphthyl-2-carbonyl)-L-lysine [Example 65]” has an IC50 of over 5 µM.

Same assay, conditions: Table 4, compounds of formula I′; read-out: IC50
Compound `CC(C)(C)OC[C@H](NC(=O)c1cccn1Cc1ccc(F)cc1)C(=O)NCCc1ccc(O)c(O)c1` [Example 93, N-[Nα-(N′-(4-Fluorobenzyl)pyrrole-2-carbonyl)-O-tert-butyl-L-seryl]dopamine] has an IC50 of over 10 µM.
In the case of `O=C(C=Cc1ccc(OCc2ccc(F)cc2)c(OCc2ccc(F)cc2)c1)NCC(=O)NCCc1cccs1` [Example 98, N-[Nα-(3,4-di-(4-Fluorobenzyloxy)caffeoyl)-glycyl]-2-(2′-thiophenyl)ethylamine], the IC50 is reported as over 10 µM.
`O=C(C=Cc1ccc(OCc2ccc(F)cc2)c(OCc2ccc(F)cc2)c1)NCC(=O)NCCc1ccc(O)c(O)c1` [Example 100, N-[Nα-(3,4-di-(4-Fluorobenzyloxy)caffeoyl)-L-glycyl)dopamine] was tested, and the IC50 was 2.6 µM.
Work on `COc1ccc(NC(=O)[C@H](CCC(=O)NC(c2ccccc2)(c2ccccc2)c2ccccc2)NC(=O)c2cc3ccccc3n2Cc2ccc(F)cc2)cc1O` [Example 109, N-[Nα-(N′-(4-Fluorobenzyl)indole-2-carbonyl)-Nδ-trityl-L-glutaminyl]-3-hydroxy-4-methoxyaniline] yielded an IC50 of 5.3 µM.
“N-[Nα-(N′-(4-Fluorobenzyl)indole-2-carbonyl)-Oδ-tert-butyl-L-glutamyl]benzylamine [Example 89]” showed an IC50 of over 10 µM.
